Biological target: T1, WT TREK-2 channels (Homo sapiens, UniProt P57789)
T1 construct: expressed in transfected cells; host or cells: Xenopus laevis oocytes (cRNA injection), excised inside-out patches
T1 sequence (P57789 1-538): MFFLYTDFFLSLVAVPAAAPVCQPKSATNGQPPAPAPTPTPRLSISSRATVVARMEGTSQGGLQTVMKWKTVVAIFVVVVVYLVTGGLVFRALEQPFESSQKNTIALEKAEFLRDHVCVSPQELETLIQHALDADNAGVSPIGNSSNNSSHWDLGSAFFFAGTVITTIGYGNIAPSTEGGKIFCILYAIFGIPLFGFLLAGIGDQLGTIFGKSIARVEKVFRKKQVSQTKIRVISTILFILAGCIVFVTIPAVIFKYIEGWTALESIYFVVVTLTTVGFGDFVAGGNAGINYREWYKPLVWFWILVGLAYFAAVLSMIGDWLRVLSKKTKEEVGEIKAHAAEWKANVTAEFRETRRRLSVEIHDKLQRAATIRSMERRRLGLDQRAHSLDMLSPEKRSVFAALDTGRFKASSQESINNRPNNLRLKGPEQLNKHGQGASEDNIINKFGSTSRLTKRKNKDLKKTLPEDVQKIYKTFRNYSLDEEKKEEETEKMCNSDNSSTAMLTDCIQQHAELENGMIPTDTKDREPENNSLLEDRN
Test: Conductance-voltage (G-V) curves from tail currents, V1/2 (intracellular Rb+)
Assay type: cell-based
From the text: The voltage-dependent activation mechanism of the SF gate in K2P channels allows to estimate the electrical work (ΔG = zFΔV1/2) required for pore opening by fitting the G–V curve to a Boltzmann equation. […] The open state represents the situation of both gates being simultaneously open but voltage can only exert force on the SF gate that functions as voltage sensor. […] We further tested whether mutations that open the lower gate (L262A and L264A) would affect the extracellular pH sensitivity. […] We further explored this concept of allosteric coupling using the mutations identified in the functional alanine screen of TM2 and TM4. […]
Conductance-voltage (G–V) relationships were determined from tail currents recorded at a holding potential (VH) of −80 mV after 300 ms depolarizing steps as indicated in the respective figure legend. Data were analyzed with a single Boltzmann fit following Eq. 6:6 GV=Imax/1+e^V−V1/2/slope+Ibase where V1/2 represents the voltage of half-maximal activation, s is the slope factor and Imax and Ibase represent the upper and lower asymptotes. Under appropriate experimental conditions, you can use slope to calculate the valence (charge) of the ion moving across the channel. Slope equals R * T/ z * F where R is the universal gas constant, T is temperature in K, F is the Faraday constant, and z is the valence.

SMILES: CCCCC[N+](CCCCC)(CCCCC)CCCCC [TPenA, Tetra-pentyl-ammonium chloride]
- effect of TPenA on the G-V curve (TREK-2, intracellular Rb+): not affected
- Normalized current (TREK-2 WT + 0.1 mM TPenA, Voltage 0.000): 0.142
- Normalized current (TREK-2 WT + 0.1 mM TPenA, Voltage 0.005): 0.177
- Normalized current (TREK-2 WT + 0.1 mM TPenA, Voltage 0.010): 0.238
- Normalized current (TREK-2 WT + 0.1 mM TPenA, Voltage 0.015): 0.307
- Normalized current (TREK-2 WT + 0.1 mM TPenA, Voltage 0.020): 0.404
- Normalized current (TREK-2 WT + 0.1 mM TPenA, Voltage 0.025): 0.485
- Normalized current (TREK-2 WT + 0.1 mM TPenA, Voltage 0.030): 0.577
- Normalized current (TREK-2 WT + 0.1 mM TPenA, Voltage 0.035): 0.667
- Normalized current (TREK-2 WT + 0.1 mM TPenA, Voltage 0.040): 0.719
- Normalized current (TREK-2 WT + 0.1 mM TPenA, Voltage 0.045): 0.784
- Normalized current (TREK-2 WT + 0.1 mM TPenA, Voltage 0.050): 0.838
- Normalized current (TREK-2 WT + 0.1 mM TPenA, Voltage 0.055): 0.851
- Normalized current (TREK-2 WT + 0.1 mM TPenA, Voltage 0.060): 0.883
- Normalized current (TREK-2 WT + 0.1 mM TPenA, Voltage 0.065): 0.906
- Normalized current (TREK-2 WT + 0.1 mM TPenA, Voltage 0.070): 0.921
- Normalized current (TREK-2 WT + 0.1 mM TPenA, Voltage 0.075): 0.924
- Normalized current (TREK-2 WT + 0.1 mM TPenA, Voltage 0.080): 0.944
- Normalized current (TREK-2 WT + 0.1 mM TPenA, Voltage 0.085): 0.936
- Normalized current (TREK-2 WT + 0.1 mM TPenA, Voltage 0.090): 0.949
- Normalized current (TREK-2 WT + 0.1 mM TPenA, Voltage 0.095): 0.963
- Normalized current (TREK-2 WT + 0.1 mM TPenA, Voltage 0.100): 0.966
- Normalized current (TREK-2 WT + 0.1 mM TPenA, Voltage 0.105): 0.964
- Normalized current (TREK-2 WT + 0.1 mM TPenA, Voltage 0.110): 0.962
- Normalized current (TREK-2 WT + 0.1 mM TPenA, Voltage 0.115): 0.961
- Normalized current (TREK-2 WT + 0.1 mM TPenA, Voltage 0.120): 0.949
- Normalized current (TREK-2 WT + 0.1 mM TPenA, Voltage 0.125): 0.915
- Normalized current (TREK-2 WT + 0.1 mM TPenA, Voltage 0.130): 0.965
- Normalized current (TREK-2 WT + 0.1 mM TPenA, Voltage 0.135): 0.962
- Normalized current (TREK-2 WT + 0.1 mM TPenA, Voltage 0.140): 0.941
- Normalized current (TREK-2 WT + 0.1 mM TPenA, Voltage 0.145): 0.970
- Normalized current (TREK-2 WT + 0.1 mM TPenA, Voltage 0.150): 0.939
- Normalized current (TREK-2 WT + 0.1 mM TPenA, Voltage -0.005): 0.115
- Normalized current (TREK-2 WT + 0.1 mM TPenA, Voltage -0.010): 0.097
- Normalized current (TREK-2 WT + 0.1 mM TPenA, Voltage -0.015): 0.086
- Normalized current (TREK-2 WT + 0.1 mM TPenA, Voltage -0.020): 0.073
- Normalized current (TREK-2 WT + 0.1 mM TPenA, Voltage -0.025): 0.072
- Normalized current (TREK-2 WT + 0.1 mM TPenA, Voltage -0.030): 0.066
- Normalized current (TREK-2 WT + 0.1 mM TPenA, Voltage -0.035): 0.062
- Normalized current (TREK-2 WT + 0.1 mM TPenA, Voltage -0.040): 0.062
- Normalized current (TREK-2 WT + 0.1 mM TPenA, Voltage -0.045): 0.059
- Normalized current (TREK-2 WT + 0.1 mM TPenA, Voltage -0.050): 0.058
- Normalized current (TREK-2 WT + 0.1 mM TPenA, Voltage -0.055): 0.055
- Normalized current (TREK-2 WT + 0.1 mM TPenA, Voltage -0.060): 0.055
- Normalized current (TREK-2 WT + 0.1 mM TPenA, Voltage -0.065): 0.050
- Normalized current (TREK-2 WT + 0.1 mM TPenA, Voltage -0.070): 0.049
- Normalized current (TREK-2 WT + 0.1 mM TPenA, Voltage -0.075): 0.050
- Normalized current (TREK-2 WT + 0.1 mM TPenA, Voltage -0.080): 0.048
- Normalized current (TREK-2 WT + 0.1 mM TPenA, Voltage -0.085): 0.046
- Normalized current (TREK-2 WT + 0.1 mM TPenA, Voltage -0.090): 0.044
- Normalized current (TREK-2 WT + 0.1 mM TPenA, Voltage -0.095): 0.044
- Normalized current (TREK-2 WT + 1 mM TPenA, Voltage 0.000): 0.164
- Normalized current (TREK-2 WT + 1 mM TPenA, Voltage 0.005): 0.199
- Normalized current (TREK-2 WT + 1 mM TPenA, Voltage 0.010): 0.243
- Normalized current (TREK-2 WT + 1 mM TPenA, Voltage 0.015): 0.286
- Normalized current (TREK-2 WT + 1 mM TPenA, Voltage 0.020): 0.362
- Normalized current (TREK-2 WT + 1 mM TPenA, Voltage 0.025): 0.446
- Normalized current (TREK-2 WT + 1 mM TPenA, Voltage 0.030): 0.519
- Normalized current (TREK-2 WT + 1 mM TPenA, Voltage 0.035): 0.589
- Normalized current (TREK-2 WT + 1 mM TPenA, Voltage 0.040): 0.634
- Normalized current (TREK-2 WT + 1 mM TPenA, Voltage 0.045): 0.688
- Normalized current (TREK-2 WT + 1 mM TPenA, Voltage 0.050): 0.702
- Normalized current (TREK-2 WT + 1 mM TPenA, Voltage 0.055): 0.751
- Normalized current (TREK-2 WT + 1 mM TPenA, Voltage 0.060): 0.768
- Normalized current (TREK-2 WT + 1 mM TPenA, Voltage 0.065): 0.790
- Normalized current (TREK-2 WT + 1 mM TPenA, Voltage 0.070): 0.818
- Normalized current (TREK-2 WT + 1 mM TPenA, Voltage 0.075): 0.805
- Normalized current (TREK-2 WT + 1 mM TPenA, Voltage 0.080): 0.838
- Normalized current (TREK-2 WT + 1 mM TPenA, Voltage 0.085): 0.838
- Normalized current (TREK-2 WT + 1 mM TPenA, Voltage 0.090): 0.887
- Normalized current (TREK-2 WT + 1 mM TPenA, Voltage 0.095): 0.885
- Normalized current (TREK-2 WT + 1 mM TPenA, Voltage 0.100): 0.885
- Normalized current (TREK-2 WT + 1 mM TPenA, Voltage 0.105): 0.883
- Normalized current (TREK-2 WT + 1 mM TPenA, Voltage 0.110): 0.905
- Normalized current (TREK-2 WT + 1 mM TPenA, Voltage 0.115): 0.909
- Normalized current (TREK-2 WT + 1 mM TPenA, Voltage 0.120): 0.967
- Normalized current (TREK-2 WT + 1 mM TPenA, Voltage 0.125): 0.928
- Normalized current (TREK-2 WT + 1 mM TPenA, Voltage 0.130): 0.900
- Normalized current (TREK-2 WT + 1 mM TPenA, Voltage 0.135): 0.929
- Normalized current (TREK-2 WT + 1 mM TPenA, Voltage 0.140): 0.939
- Normalized current (TREK-2 WT + 1 mM TPenA, Voltage 0.145): 0.922
- Normalized current (TREK-2 WT + 1 mM TPenA, Voltage 0.150): 0.939
- Normalized current (TREK-2 WT + 1 mM TPenA, Voltage -0.005): 0.135
- Normalized current (TREK-2 WT + 1 mM TPenA, Voltage -0.010): 0.126
- Normalized current (TREK-2 WT + 1 mM TPenA, Voltage -0.015): 0.111
- Normalized current (TREK-2 WT + 1 mM TPenA, Voltage -0.020): 0.109
- Normalized current (TREK-2 WT + 1 mM TPenA, Voltage -0.025): 0.110
- Normalized current (TREK-2 WT + 1 mM TPenA, Voltage -0.030): 0.103
- Normalized current (TREK-2 WT + 1 mM TPenA, Voltage -0.035): 0.102
- Normalized current (TREK-2 WT + 1 mM TPenA, Voltage -0.040): 0.096
- Normalized current (TREK-2 WT + 1 mM TPenA, Voltage -0.045): 0.095
- Normalized current (TREK-2 WT + 1 mM TPenA, Voltage -0.050): 0.089
- Normalized current (TREK-2 WT + 1 mM TPenA, Voltage -0.055): 0.092
- Normalized current (TREK-2 WT + 1 mM TPenA, Voltage -0.060): 0.088
- Normalized current (TREK-2 WT + 1 mM TPenA, Voltage -0.065): 0.090
- Normalized current (TREK-2 WT + 1 mM TPenA, Voltage -0.070): 0.088
- Normalized current (TREK-2 WT + 1 mM TPenA, Voltage -0.075): 0.085
- Normalized current (TREK-2 WT + 1 mM TPenA, Voltage -0.080): 0.084
- Normalized current (TREK-2 WT + 1 mM TPenA, Voltage -0.085): 0.087
- Normalized current (TREK-2 WT + 1 mM TPenA, Voltage -0.090): 0.084
- Normalized current (TREK-2 WT + 1 mM TPenA, Voltage -0.095): 0.081

Source: publication PMC11364775, “Ion occupancy of the selectivity filter controls opening of a cytoplasmic gate in the K2P channel TALK-2” (Nature Communications, 2024)
